# Measurements taken from patent publication US20120083471A1, “Novel Compounds, Pharmaceutical Compositions Containing Same, Methods of Use for Same, and Methods for Preparing Same” (priority 2008, published 2012).
# Entries after “also recorded” stand apart in the source; their conditions may differ.
# How the values were obtained:
# lean mice [1] = test: Conditioned taste aversion, two-bottle choice; format: in vivo, mouse; settings: 5 mg/kg or 20 mg/kg ip, listed as FSG67
# Procedure: Conditioned taste aversion. Ten days before testing, eighteen male C57/BL6 mice were placed on a schedule of 2 h daytime access to water. On the test day, mice were divided into three groups and were given access to 0.15% sodium saccharin rather than water for 30 min. Immediately after saccharin access, mice were injected ip with RPMI vehicle or FSG67 (5 and 20 mg/kg body wt) and were allowed water access for the remaining 90 min. Twenty-four hours later, mice were given 2h access to a two-bottle choice test of 0.15% saccharin vs. water. Intakes of both solutions were recorded, and data were expressed as saccharin preference (100× saccharin intake/saccharin intake+water intake).
# GPAT inhibition with FSG67 decreased body weight in DIO mice consuming a high fat diet. FSG67 treated DIO mice lost 4.3±0.5% (1.7±0.2 g) of body mass versus a 5.3±0.4% (2.1±0.2 g) loss for fasted mice (FIG. 11c). Compared to the vehicle control mice which lost 2.5±0.6% (1.0±0.2 g) the weight loss was significant in both the FSG67 treated (p=0.026, 2-tailed t-test) and fasted mice (p=0.002, 2-tailed t-test). […] Thus, the reduction in food intake from FSG67 was not due to sickness behavior (FIG. 11e).
# [2] = tested on: hypothalamic neuropeptide expression; test: Real-time RT-PCR of hypothalamic neuropeptides in DIO mice; format: in vivo, mouse
# Procedure: (§1) For acute studies, 6 DIO or lean mice were treated with a single dose of FSG67 (20 mg/kg, i.p.) approximately 3 hrs past lights-on. Animal weights and food consumption were measured 18 h after treatment. Following euthanization, the hypothalmuses were harvested to measure orexigenic and anorexigenic neuropeptide gene expression. In the chronic studies, DIO mice, 4-10 animals per group, were treated daily with FSG67 (5 mg/kg, i.p.) or with RMPI vehicle for the days indicated. Body weight and food intake were measured daily. In one study, a cohort of mice was pair-fed with amounts consumed by the FSG67-treated animals and mice were monitored with indirect calorimetry (Oxymax Equal Flow System®, Columbus Instruments, Columbus, Ohio). Measurements of VO2 (ml/kg/hr) and VCO2 (ml/kg/hr) were performed and recorded every 15 min. The respiratory exchange ratio (RER) was calculated by Oxymax software, version 5.9, and is defined as ratio of VCO2 to VO2 33. After completion of the treatment course, animals were euthanized by CO2 inhalation 4 hrs following the final dose of FSG67. Tissues were harvested immediately for RNA extraction; serum was collected and analyzed for glucose, cholesterol, and triglyceride measurements (Bioanalytics, Gaithersburg, Md.). Fresh liver tissue was snap frozen in liquid N2, sectioned, and stained with hematoxylin and Oil Red O to visualize triglyceride droplets.
# Real-time RT-PCR. Hypothalamus, liver, and WAT of DIO and lean mice were harvested and immediately frozen in liquid nitrogen. Total RNA was isolated and real-time quantitative RT-PCR was performed as previously described (13). Gene-specific primer pairs were designed using Primer3 software (http://www-genome.wi.mit.edu/cgi-bin/primer/primer3_www.cgi/). […]
# Acute and chronic FSG67 treatment altered hypothalamic neuropeptide expression. Hypothalamic peptide expression was measured in the lean and DIO mice treated with a single dose of FSG67 (see FIG. 11) and in the chronically treated DIO mice (see FIG. 12) to further asses the mechanism responsible for reduced food intake. […]
# lean mice [3] = test: Acute single-dose FSG67 treatment of lean mice (body weight, food intake); format: in vivo; settings: single 20 mg/kg ip
# Text: DIO and lean mouse models. All animal experimentation was done in accordance with guidelines on animal care and use as established by the Johns Hopkins University School of Medicine IACUC. DIO C57BL6J male mice were obtained from Jackson Laboratory (Bar Harbor, ME) and fed a synthetic diet comprised of 60% calories from fat, 20% from carbohydrate, and 20% from protein (5.2 kcal/g) post-weaning through the experimental procedures (D12492i, Research Diets, Inc., New Brunswick, N.J.). For lean animal studies, twelve-week old C57BL6J male mice (Jackson Laboratory, Bar Harbor, Me.) were fed rodent chow comprised of 13% calories from fat, 58% from carbohydrate, and 29% from protein (4.1 kcal/g) (Prolab RMH 2500, PMI Nutrition International Inc., Brentwood, Mo.). Mice were maintained in 12 hr light-dark cycle at 25° C. for 1 week for acclimatization prior to treatment. In all studies, FSG67 (FASgen, Inc., Baltimore, Md.) was dissolved in RPMI 1640 (Invitrogen, Carlsbad, Calif.).
# as §1, with “In the chronic studies, DIO mice, 4-10 animals per group, were treated daily with FSG67 (5 mg/kg, i.p.) or with RMPI vehicle for the days indicated.” left out, “After completion of the treatment course, animals were euthanized by CO2 inhalation 4 hrs following the final dose of FSG67.” left out, “Fresh liver tissue was snap frozen in liquid N2, sectioned, and stained with hematoxylin and Oil Red O to visualize triglyceride droplets.” left out
# DIO mice [4] = test: Acute single-dose FSG67 treatment of DIO mice (body weight, food intake); format: in vivo, mouse; settings: single 20 mg/kg ip
# Text: DIO and lean mouse models. All animal experimentation was done in accordance with guidelines on animal care and use as established by the Johns Hopkins University School of Medicine IACUC. DIO C57BL6J male mice were obtained from Jackson Laboratory (Bar Harbor, ME) and fed a synthetic diet comprised of 60% calories from fat, 20% from carbohydrate, and 20% from protein (5.2 kcal/g) post-weaning through the experimental procedures (D12492i, Research Diets, Inc., New Brunswick, N.J.). […]
# For acute studies, 6 DIO or lean mice were treated with a single dose of FSG67 (20 mg/kg, i.p.) approximately 3 hrs past lights-on. Animal weights and food consumption were measured 18 h after treatment. […] Body weight and food intake were measured daily. In one study, a cohort of mice was pair-fed with amounts consumed by the FSG67-treated animals and mice were monitored with indirect calorimetry (Oxymax Equal Flow System®, Columbus Instruments, Columbus, Ohio). Measurements of VO2 (ml/kg/hr) and VCO2 (ml/kg/hr) were performed and recorded every 15 min. The respiratory exchange ratio (RER) was calculated by Oxymax software, version 5.9, and is defined as ratio of VCO2 to VO2 33. […] Tissues were harvested immediately for RNA extraction; serum was collected and analyzed for glucose, cholesterol, and triglyceride measurements (Bioanalytics, Gaithersburg, Md.). […]
# DIO mice [5] = test: 5-day dose ranging study in DIO mice; format: in vivo, mouse; settings: 5 days
# Procedure: To determine the dose of FSG67 suitable for chronic treatment, we performed a 5-day dose ranging study in DIO mice, four per group, with daily intraperitoneal doses of 1, 2, and 5 mg/kg (FIG. 17). The 5 mg/kg dose led to significant weight loss of 3.9% compared to vehicle controls (p=0.008, 2-way ANOVA). This dose was chosen for the subsequent chronic treatment experiments.
smiles,measurement,setting,value
"CCCCCCCCCS(=O)(=O)Nc1ccccc1C(=O)O [Compound 15g, 2-(Nonylsulfonamido)benzoic acid]",conditioned taste aversion (saccharin intake),lean mice [1],failed to produce a significant reduction in saccharin intake; also recorded: did not induce conditioned tasted aversion
same,"hypothalamic AGRP, POMC and CART expression",[2]; 16 d treated,unaffected
same,hypothalamic NPY expression,"[2]; 16 d treated, vs vehicle controls, listed as FSG67",significant reduction
same,hypothalamic AGRP expression,"[2]; single dose, vs vehicle controls and food-deprived (data not shown)",significantly increased
same,food consumption,lean mice [3]; lean mice,1.4 ± 0.2 g
same,"food consumption, % of vehicle control",lean mice [3]; lean mice,33%
same,overt toxicity,lean mice [3]; lean or DIO mice,No overt toxicity
same,food consumption,DIO mice [4],0.5 ± 0.1 g
same,"food consumption, % of vehicle control",DIO mice [4],41.6%
same,weight loss compared to vehicle controls,DIO mice [5]; 5 mg/kg ip daily,3.9%
same,minimum dose that led to significant weight loss,"DIO mice [5]; daily ip, doses 1, 2, 5 mg/kg",5 mg/kg
